Results as given in US8927500B2, “Peptidomimetic macrocycles” (Aileron Therapeutics, Inc., priority 2012, dated 2015).
Where a SMILES comes first, the peptide text is derived from it. Bridges are numbered along the chain shown (N, C = ends). [ ]: non-standard residue; d: D form. Phe(4-COOH) = N[C@@H](Cc1ccc(C(=O)O)cc1)C(=O)O; R8 = C=CCCCCCC[C@@](C)(N)C(=O)O; Cba = N[C@@H](CC1CCC1)C(=O)O; S5 = C=CCCC[C@](C)(N)C(=O)O

Columns and labels:
[1] = MCF-7 xenograft study, body weight, deaths and tolerability; assay type: in vivo, mice
Text: A negative control stapled peptide.

SJSA-1 cells [2] = assay: Cell viability assay (MTT), SJSA-1; conditions: in words
[3] = system: MCF-7 breast cancer xenograft; assay: MCF-7 breast cancer xenograft study, tumor growth inhibition; conditions: 30 mg/kg 3×/wk iv
Method: This formulation was prepared once for the duration of the study.
Each group was assigned to a different treatment regimen.
During the dosing period the mice were weighed and tumors measured 1-2 times per week.

[4] = Circular dichroism (CD) analysis of alpha-helicity; assay type: physicochemical; conditions: for Molar Ellipticity 50% TFE (222 in 50% TFE): CD buffer with 50% TFE; for Molar Ellipticity 50% TFE (222 in 50% TFE) / Molar Ellipticity Benign (222 in 0% TFE): 222 nm, 4° C.; for Molar Ellipticity Benign (222 in 0% TFE): benign CD buffer pH 2, 0% TFE; for % Helix benign compared to 50% TFE parent (CD): benign buffer; for Molar Ellipticity TFE-Molar Ellipticity Benign: difference 50% TFE minus benign
Method: To assay the helicity of peptidomimetic macrocycles, the compounds are dissolved in an aqueous solution (e.g. 50 mM potassium phosphate solution at pH 7, or distilled H2O, to concentrations of 25-50 μM). Circular dichroism (CD) spectra are obtained on a spectropolarimeter (e.g., Jasco J-710) using standard measurement parameters (e.g. temperature, 20° C.; wavelength, 190-260 nm; step resolution, 0.5 nm; speed, 20 nm/sec; accumulations, 10; response, 1 sec; bandwidth, 1 nm; path length, 0.1 cm). […] A Peltier temperature controller was used to maintain temperature control of the optical cell. Results are expressed as mean molar ellipticity [0] […] Peptide concentrations were determined by amino acid analysis. Stock solutions of peptides were prepared in benign CD buffer (20 mM phosphoric acid, pH 2). The stocks were used to prepare peptide solutions of 0.05 mg/ml in either benign CD buffer or CD buffer with 50% trifluoroethanol (TFE) for analyses in a 10 mm pathlength cell. […] The average of six scans was reported.

MDM2 = MDM2 (Homo sapiens, UniProt Q00987); assay: Competitive fluorescence polarization assay for MDM2; assay type: binding; conditions: competitive FP assay, MDM2; for IC50: read-out: IC50 (MDM2); for Ki: read-out: Ki (MDM2)
Chain of MDM2 (Q00987 1-125): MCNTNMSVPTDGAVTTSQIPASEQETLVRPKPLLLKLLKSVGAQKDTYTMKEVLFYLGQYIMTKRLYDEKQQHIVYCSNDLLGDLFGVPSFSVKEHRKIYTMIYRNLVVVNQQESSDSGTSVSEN

MDMX = molecular target: T1, MDMX (Homo sapiens, UniProt O15151); assay: Competitive fluorescence polarization assay for MDMX; assay type: binding; conditions: competitive FP assay; for IC50: read-out: IC50 (MDMX); for Ki: read-out: Ki (MDMX)
T1 sequence (O15151 1-125): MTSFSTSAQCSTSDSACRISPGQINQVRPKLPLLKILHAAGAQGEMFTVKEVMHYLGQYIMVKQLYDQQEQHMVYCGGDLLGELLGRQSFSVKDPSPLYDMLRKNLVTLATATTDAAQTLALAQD
Method: Dilute MDMX (In-house, 40 kD) into FP buffer (High salt buffer-200 mM Nacl, 5 mM CHAPS, pH 7.5.) to make 300 nM (2×) working stock solution. • 2. […] Dilute 1 mM (in 100% DMSO) of FAM labeled linear peptide with DMSO to 100 μM (dilution 1:10). Then, dilute from 100 μM to 10 μM with water (dilution 1:10) and then dilute with FP buffer from 10 μM to 40 nM (dilution 1:250). This is the working solution which will be a 10 nM concentration in well (dilution 1:4). Keep the diluted FAM labeled peptide in the dark until use. • 4. […] Dilute 10 mM (in 100% DMSO) with DMSO to 5 mM (dilution 1:2). Then, dilute from 5 mM to 500 μM with H2O (dilution 1:10) and then dilute with FP buffer from 500 μM to 20 μM (dilution 1:25). […] Transfer 10 μl of serial diluted unlabeled peptides to each well which is filled with 20 μl of 300 nM of protein. • 7. Add 10 μl of 10 nM (4×) of FAM labeled peptide into each well and incubate for 3 hr to read.

Caspase 3 = Caspase 3 detection assay in SJSA1 cells; assay type: cell-based; conditions: 48 h, Caspase 3 activation over DMSO-treated cells; for caspase 0.3 uM: 0.3 uM peptide; for caspase 1 uM: 1 uM peptide; for caspase 3 uM: 3 uM peptide; for caspase 10 uM: 10 uM peptide; for caspase 30 uM: 30 uM peptide
SJSA-1 cells [5] = assay: Cell lysis by peptidomimetic macrocycles (LDH release); assay type: cell-based; conditions: 1 h at 37C

CC[C@H](C)[C@H](NC(=O)[C@H](C)NC(=O)[C@H](C)NC(=O)[C@]1(C)CCC/C=C/CCCCCC[C@@](C)(NC(=O)[C@H](Cc2ccccc2)NC(=O)[C@@H](NC(=O)[C@H](CC(C)C)NC(C)=O)[C@@H](C)O)C(=O)N[C@@H](CCC(=O)O)C(=O)N[C@@H](Cc2ccc(C(=O)O)cc2)C(=O)N[C@@H](Cc2c[nH]c3ccccc23)C(=O)N[C@@H](C)C(=O)N[C@@H](CCC(N)=O)C(=O)N[C@@H](CC2CCC2)C(=O)N1)C(=O)N[C@H](C)C(N)=O [SP249, Ac-L T F $er8 E F4coohWAQCba $e AA-I-a-NH2] (Ac-LTF[R8]E[Phe(4-COOH)]WAQ[Cba][S5]AAI[dA]-NH2; staple (E) 4-11)
mice died during treatment ([1]; […] 3×/wk iv, 10 mice per group): 4

CC(=O)N[C@@H](CC(C)C)C(=O)N[C@H](C(=O)N[C@@H](C)C(=O)N[C@]1(C)CCCCCCC=CCCC[C@@](C)(C(=O)N[C@@H](CO)C(=O)N[C@@H](C)C(=O)N[C@@H](C)C(N)=O)NC(=O)[C@H](CC2CCC2)NC(=O)[C@H](CCC(N)=O)NC(=O)[C@H](C)NC(=O)[C@H](Cc2c[nH]c3ccccc23)NC(=O)[C@H](Cc2ccc(O)cc2)NC(=O)[C@H](CCC(=O)O)NC1=O)[C@@H](C)O [SP252]
% BW Change ([1]; 30 mg/kg 3×/wk iv): +3.3% | No. with ≧10% BW Loss ([1]; 30 mg/kg 3×/wk iv): 0/10 | No. with ≧20% BW Loss or death ([1]; 30 mg/kg 3×/wk iv): 0/10 | tolerability of dosing regimen ([1]; 30 mg/kg 3×/wk iv, in words): well-tolerated | activity in the SJSA-1 in vitro viability assay (SJSA-1 cells [2]): no activity | activity in in vitro assays (SJSA-1 cells [2]; in vitro assays not specified): no appreciable activity | TGI by Day 32 [3]: 88%

CC(=O)N[C@@H](CC(C)C)C(=O)N[C@H](C(=O)N[C@@H](Cc1ccccc1)C(=O)N[C@]1(C)CCCCCCC=CCCC[C@@](C)(C(=O)N[C@@H](CO)C(=O)N[C@@H](C)C(=O)N[C@@H](Cc2ccccc2)C(N)=O)NC(=O)[C@H](CC(C)C)NC(=O)[C@H](CCC(N)=O)NC(=O)[C@H](C)NC(=O)[C@H](Cc2c[nH]c3ccccc23)NC(=O)[C@H](Cc2ccc(O)cc2)NC(=O)[C@H](C)NC1=O)[C@@H](C)O [compound 7] (Ac-LTF[R8]AYWAQL[S5]SAF-NH2; staple 4-11)
% Helix 50% TFE compared to 50% TFE parent (CD) [4]: 137.3% | Molar Ellipticity 50% TFE (222 in 50% TFE) [4]: −19921.4 deg cm2 dmol-1 | Molar Ellipticity Benign (222 in 0% TFE) [4]: 124 deg cm2 dmol-1 | % Helix benign compared to 50% TFE parent (CD) [4]: −0.9% | Molar Ellipticity TFE-Molar Ellipticity Benign [4]: −20045.4 deg cm2 dmol-1 | IC50 (MDM2): 10 to 100 nM | Ki (MDM2): < 10 nM | IC50 (MDMX): 10 to 100 nM | Ki (MDMX): 10 to 100 nM | caspase 0.3 uM (Caspase 3): 0.93 | caspase 1 uM (Caspase 3): 1.4 | caspase 3 uM (Caspase 3): 5.08 | caspase 10 uM (Caspase 3): 21.7 | caspase 30 uM (Caspase 3): 23.96 | 6.25 uM % Lysed cells (1 h LDH) (SJSA-1 cells [5]): 0% | 25 uM % Lysed cells (1 h LDH) (SJSA-1 cells [5]): 0% | 50 uM % Lysed cells (1 h LDH) (SJSA-1 cells [5]): 0%

CCCC[C@H](NC(=O)[C@H](C)NC(=O)[C@H](C)NC(=O)[C@]1(C)CCC/C=C/CCCCCC[C@@](C)(NC(=O)[C@H](Cc2ccccc2)NC(=O)[C@@H](NC(=O)[C@H](CC(C)C)NC(C)=O)[C@@H](C)O)C(=O)N[C@@H](C)C(=O)N[C@@H](Cc2ccc(O)cc2)C(=O)N[C@@H](Cc2c[nH]c3ccccc23)C(=O)N[C@@H](C)C(=O)N[C@@H](CCC(N)=O)C(=O)N[C@@H](CC(C)C)C(=O)N1)C(=O)N[C@@H](C)C(N)=O [compound 69]
% Helix 50% TFE compared to 50% TFE parent (CD) [4]: 148.2% | Molar Ellipticity 50% TFE (222 in 50% TFE) [4]: −21509.7 deg cm2 dmol-1 | Molar Ellipticity Benign (222 in 0% TFE) [4]: −102.6 deg cm2 dmol-1 | % Helix benign compared to 50% TFE parent (CD) [4]: 0.7% | IC50 (MDM2): 10 to 100 nM | Ki (MDM2): < 10 nM | IC50 (MDMX): 100 to 1000 nM | Ki (MDMX): 10 to 100 nM | caspase 0.3 uM (Caspase 3): 4.34 | caspase 1 uM (Caspase 3): 9.51 | caspase 3 uM (Caspase 3): 16.39 | caspase 10 uM (Caspase 3): 26.59 | caspase 30 uM (Caspase 3): 26.11 | 6.25 uM % Lysed cells (1 h LDH) (SJSA-1 cells [5]): 1% | 25 uM % Lysed cells (1 h LDH) (SJSA-1 cells [5]): −0.5% | 50 uM % Lysed cells (1 h LDH) (SJSA-1 cells [5]): 5%

CC[C@H](C)[C@H](NC(=O)[C@H](C)NC(=O)[C@H](C)NC(=O)[C@]1(C)CCC/C=C/CCCCCC[C@@](C)(NC(=O)[C@H](Cc2ccccc2)NC(=O)[C@@H](NC(=O)[C@H](CC(C)C)NC(C)=O)[C@@H](C)O)C(=O)N[C@@H](C)C(=O)N[C@@H](Cc2ccc(O)cc2)C(=O)N[C@@H](Cc2c[nH]c3ccccc23)C(=O)N[C@@H](C)C(=O)N[C@@H](CCC(N)=O)C(=O)N[C@@H](CC(C)C)C(=O)N1)C(=O)N[C@H](C)C(N)=O [compound 71]
% Helix 50% TFE compared to 50% TFE parent (CD) [4]: 123.7% | Molar Ellipticity 50% TFE (222 in 50% TFE) [4]: −17957 deg cm2 dmol-1 | Molar Ellipticity Benign (222 in 0% TFE) [4]: −121.2 deg cm2 dmol-1 | % Helix benign compared to 50% TFE parent (CD) [4]: 0.8% | Molar Ellipticity TFE-Molar Ellipticity Benign [4]: −17835.9 deg cm2 dmol-1 | IC50 (MDM2): 10 to 100 nM | Ki (MDM2): < 10 nM | IC50 (MDMX): 100 to 1000 nM | Ki (MDMX): 10 to 100 nM | caspase 0.3 uM (Caspase 3): 0.95 | caspase 1 uM (Caspase 3): 1.02 | caspase 3 uM (Caspase 3): 3.68 | caspase 30 uM (Caspase 3): 23.52 | 6.25 uM % Lysed cells (1 h LDH) (SJSA-1 cells [5]): 0% | 25 uM % Lysed cells (1 h LDH) (SJSA-1 cells [5]): 0% | 50 uM % Lysed cells (1 h LDH) (SJSA-1 cells [5]): 0%
